Laboratory results: patent publication US7776862B2, “Pyridyl and phenyl substituted piperazine-piperidines with CXCR3 antagonist activity” (Schering Corporation, priority 2005, dated 2010)

molecular target: T1, human CXCR3 (N-delta 4) (Homo sapiens, UniProt P49682); test: Human CXCR3 (N-delta 4) scintillation proximity assay (SPA), [125I] IP-10 binding; settings: IC50 rating; Ba/F3-hCXCR3 (N-delta 4) membranes, 25 pM [125I] IP-10
T1 construct: CD8 leader; Flag tag; expressed in transfected cells; membranes used
T1 sequence (P49682 5-368 limits assumed): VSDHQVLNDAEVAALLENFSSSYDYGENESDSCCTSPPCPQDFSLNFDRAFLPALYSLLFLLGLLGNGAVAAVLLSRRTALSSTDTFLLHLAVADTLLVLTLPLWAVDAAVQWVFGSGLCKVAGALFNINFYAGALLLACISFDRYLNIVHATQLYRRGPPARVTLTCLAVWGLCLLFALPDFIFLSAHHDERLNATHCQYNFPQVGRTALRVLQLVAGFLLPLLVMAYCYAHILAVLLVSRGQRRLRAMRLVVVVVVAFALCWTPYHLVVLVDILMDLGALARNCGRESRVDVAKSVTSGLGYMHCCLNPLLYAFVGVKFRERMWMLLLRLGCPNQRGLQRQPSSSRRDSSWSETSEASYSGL
Summary of the method: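 IP-10 and compound titrations added together. The receptor source was SPA beads bearing membranes from Ba/F3 cells transfected with human CXCR3 (N-delta 4) carrying a CD8 leader and Flag tag.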

Row | Compound | IC50 [nM]
1 | CCOC(CNC(=N)c1cnc(N2CCN(C3CCN(Cc4ccc(Cl)cc4F)CC3)[C@@H](CC)C2)c(Cl)c1)OCC [compound 422] | 25 to 100
2 | CCNC(=O)N(Cc1cnc(N2CCN(C3CCN(Cc4ccc(Cl)cc4F)CC3)[C@@H](CC)C2)c(Cl)c1)C1CC1 [compound 423] | 25 to 100
3 | C[C@H]1CN(c2ncc(C(=N)N)cc2Cl)CCN1C1CCN(Cc2ccc(Cl)cc2)CC1 [compound 429] | 25 to 100
4 | CCNC(=N)c1cnc(N2CCN(C3CCN(Cc4ccc(Cl)cc4)CC3)[C@@H](C)C2)c(Cl)c1 [compound 430] | 25 to 100
5 | CC[C@H]1CN(c2c(Cl)cc(C(=O)OC)c[n+]2[O-])CCN1C1CCN(Cc2ccc(Cl)cc2F)CC1 [compound 438] | > 100
6 | CC/N=C(/NCC)c1cnc(N2CCN(C3CCN(Cc4ccc(Cl)cc4)CC3)[C@@H](C)C2)c(Cl)c1 [compound 439] | > 100
7 | C[C@H]1CN(c2ncc(CN)cc2Cl)CCN1C1CCN(Cc2ccc(Cl)cc2)CC1 [compound 440] | > 100
8 | CC[C@H]1CN(c2ncc(C(=N)N)cc2Cl)CCN1C1CCN(C(=O)c2ccc(Cl)nc2N)CC1 [compound 442] | > 100
9 | CC[C@H]1CN(c2ncc(CN(C(=O)Nc3c(C)noc3C)C(=O)Nc3c(C)noc3C)cc2Cl)CCN1C1CCN(Cc2ccc(Cl)cc2F)CC1 [compound 445] | > 100
10 | CC[C@H]1CN(c2ncc(C(=O)OC)cc2Cl)CCN1C1CCN(Cc2ccc(F)cc2C(F)(F)F)CC1 [compound 447] | > 100
11 | CC[C@H]1CN(c2ncc(CO)cc2Cl)CCN1C1CCN(C(=O)c2ccccc2)CC1 [compound 448] | > 100
12 | COC(=O)c1cnc(N2CCN(C3CCN(Cc4ccc(F)cc4)CC3)[C@@H](C)C2)c(Cl)c1 [compound 449] | > 100
13 | CC[C@H]1CN(c2ccc(CN)cn2)CCN1C1CCN(Cc2ccc(Cl)cc2)CC1 [compound 452] | > 100
14 | CCOC(CNC(=N)c1cnc(N2CCN(C3CCN(C(=O)c4ccc(Cl)cc4)CC3)[C@@H](CC)C2)c(Cl)c1)OCC [compound 453] | > 100
15 | CC[C@H]1CN(c2ncc(C(=O)OC)cc2Cl)CCN1C1CCN(C(=O)c2ccc(Br)cc2)CC1 [compound 454] | > 100
16 | COC(=O)c1ccc(N2C[C@H](C)N(C3CCN(Cc4ccc(Cl)cc4F)CC3)C[C@H]2C)nc1 [compound 456] | > 100
17 | CC[C@H]1CN(c2ncc(C(=O)OC)cc2Cl)CCN1C1CCN(C(=O)c2ccc(-n3cccc3)cc2)CC1 [compound 457] | > 100
18 | CC[C@H]1CN(c2c(Cl)cc(C(=O)OC)c[n+]2[O-])CCN1C1CCN(Cc2ccc(Cl)cc2F)CC1 [compound 458] | 25 to 100
19 | CC[C@H]1CN(c2ncc(C(N)=O)cc2Cl)CCN1C1CCN(Cc2ccc(Cl)cc2N2CCOC2=O)CC1 [compound 460] | 25 to 100
20 | CC[C@H]1CN(c2ncc(C(=O)NC3CC3)cc2C)CCN1C1CCN(C(=O)c2ccc(Cl)cc2)CC1 [compound 461] | < 25

The next lines start with the values.

Row | IC50 [nM] | Compound
21 | 25 to 100 | CC[C@H]1CN(c2ncc(CN)cc2Cl)CCN1C1CCN(Cc2ccc(Br)cc2F)CC1 [compound 421]
22 | 25 to 100 | CCOCc1cnc(N2CCN(C3CCN(Cc4ccc(Cl)cc4F)CC3)[C@@H](CC)C2)c(Cl)c1 [compound 424]
23 | 25 to 100 | CC[C@H]1CN(c2ncc(CN)cc2Cl)CCN1C1CCN(Cc2ccc(Cl)cc2F)CC1 [compound 425]
24 | 25 to 100 | CC[C@H]1CN(c2ncc(C(=N)NN)cc2Cl)CCN1C1CCN(Cc2ccc(Cl)cc2F)CC1 [compound 426]
25 | 25 to 100 | CC[C@H]1CN(c2ncc(C(C)=O)cc2Cl)CCN1C1CCN(Cc2ccc(Cl)cc2F)CC1 [compound 427]
26 | 25 to 100 | CC[C@H]1CN(c2ncc(C(=O)c3ncco3)cc2Cl)CCN1C1CCN(Cc2ccc(Cl)cc2F)CC1 [compound 428]
27 | 25 to 100 | CC[C@H]1CN(c2ncc(CNC3=NCCN3)cc2Cl)CCN1C1CCN(Cc2ccc(Cl)cc2F)CC1 [compound 431]
28 | 25 to 100 | CC[C@H]1CN(c2ncc(CN(C(=O)N(C)C)C3CC3)cc2Cl)CCN1C1CCN(Cc2ccc(Cl)cc2F)CC1 [compound 432]
29 | > 100 | CC[C@H]1CN(c2ncc(C(C)O)cc2Cl)CCN1C1CCN(Cc2ccc(Cl)cc2F)CC1 (stereo partly shown) [compound 433]
30 | > 100 | CCNC(=O)OC(C)c1cnc(N2CCN(C3CCN(Cc4ccc(Cl)cc4F)CC3)[C@@H](CC)C2)c(Cl)c1 (stereo partly shown) [compound 434]
31 | > 100 | CC[C@H]1CN(c2ncc(C(=O)OC)cc2Cl)CCN1C1CCN(Cc2ccc(Br)cc2F)CC1 [compound 435]
32 | > 100 | CC[C@H]1CN(c2ncc(C(=O)O)cc2Cl)CCN1C1CCN(Cc2ccc(Cl)cc2F)CC1 [compound 436]
33 | > 100 | CC[C@H]1CN(c2ncc(C(O)c3ncco3)cc2Cl)CCN1C1CCN(Cc2ccc(Cl)cc2F)CC1 (stereo partly shown) [compound 437]
34 | > 100 | CC[C@H]1CN(c2ncc(C(=O)OC)c(N)c2Cl)CCN1C1CCN(Cc2ccc(Cl)cc2F)CC1 [compound 441]
35 | > 100 | CC[C@H]1CN(c2ncc(CNS(=O)(=O)C(F)(F)F)cc2Cl)CCN1C1CCN(Cc2ccc(Cl)cc2F)CC1 [compound 443]
36 | > 100 | CCC(=NO)c1cnc(N2CCN(C3CCN(Cc4ccc(Cl)cc4F)CC3)[C@@H](CC)C2)c(Cl)c1 [compound 444]
37 | > 100 | CC[C@H]1CN(c2ncc(C(C)(C)O)cc2Cl)CCN1C1CCN(Cc2ccc(Cl)cc2F)CC1 [compound 446]
38 | > 100 | CC[C@H]1CN(c2ncc(C(C)N)cc2Cl)CCN1C1CCN(Cc2ccc(Cl)cc2F)CC1 (stereo partly shown) [compound 450]
39 | > 100 | CC[C@H]1CN(c2ncc(C(C)OC(C)=O)cc2Cl)CCN1C1CCN(Cc2ccc(Cl)cc2F)CC1 (stereo partly shown) [compound 451]
40 | > 100 | CCC(=NOC)c1cnc(N2CCN(C3CCN(Cc4ccc(Cl)cc4F)CC3)[C@@H](CC)C2)c(Cl)c1 [compound 455]
